# Source: patent publication US4557934A, “Penetrating topical pharmaceutical compositions containing 1-dodecyl-azacycloheptan-2-one” (priority 1983, dated 1985)
# Key:
# [1] = Penetration study through human skin, Franz diffusion apparatus; assay type: in vitro ADME; conditions: for reduction of penetration on addition, in words (compared with octanoic acid): Example 8
# Text: EtOH is ethanol. The term mcg=microgram.
# rats = conditions: cited from earlier work
# [2] = clindamycin phosphate, erythromycin base, fusidate sodium, fluorouracil, desonide, amcinonide and triamcinolone acetonide; cited from earlier work
structure (smiles),measurement,setting,value
CCCCCCCC(=O)O [octanoic acid],reduction of penetration on addition to triamcinolone / propylene glycol / C14 OH composition,"[1]; Example 8, 0-72 hrs, 4% octanoic acid",50%
CCCCCCCCCCCCCCCCO [cetyl alcohol],"reduction of penetration on addition, in words (compared with octanoic acid)",[1],Substantially similar results
CCCCCCCCCCCCCCCCCCO [steryl alcohol],"reduction of penetration on addition, in words (compared with octanoic acid)",[1],Substantially similar results
CCCCCCCCCC(=O)O [decanoic acid],"reduction of penetration on addition, in words (compared with octanoic acid)",[1],Substantially similar results
"CCCCCCCCCCCCN1CCCCCC1=O [Azone, 1-dodecyl-azacycloheptan-2-one]",order of toxicity,"rats; rat, in vivo",low order of toxicity
same,lethal dose for 50% survival (LD50),rats; rats,about 8 g/kg
same,enhancement of cutaneous penetration,[2],enhance the cutaneous penetration
